Literature values in patent publication US20230151225A1, “BLENDING ZINC […] BASE MATERIALS IN ORDER TO CREATE QUICKLY APPLIED ANTI-MICROBIAL SURFACES” (CAO Group, Inc., priority 2020, published 2023).

zinc pyrithione
solubility in water: 8 ppm
